From patent US20060172993A1 (priority 2002, published 2006)
Marks after values point to notes of the source that are not given here.

What was measured:
[1] = test system: Patients diagnosed with Alzheimer's Disease; assay: CIBIC-plus (Clinician's Interview Based Impression of Change Plus Family Input); assay type: in vivo, human
Method: (§1) Subjects in the Placebo group received 21 weeks (5 months) of placebo medication.
The CIBIC-plus score was a second primary variable. An independent, experienced and properly trained clinician provided a global impression of the subject's deterioration or improvement over the course of the trial, based on separate interviews with the subject and caregivers. If helpful, the CIBIC rater audiotaped or videotaped the baseline interview for future reference.
The CIBIC-plus was performed at visit 2, 3, 4, and 5 (baseline, week 4, week 13, and month 5 or upon early discontinuation of trial medication intake). Only a trained CIBIC rater performed the test.
For ordinal categorical variables such as the CIBIC-plus score, the Van Elteren test controlling for investigator was used for the between group comparison. For the nominal data (e.g., events rates), the Cochran-Mantel-Haenszel test for general association controlling for investigator was used. A linear contrast on the proportion of patients that stay the same or improve was used to test for increasing response with increasing dose.

[2] = test system: Patients diagnosed with Alzheimer's Disease; assay: Discontinuation of trial medication; assay type: in vivo, human
[3] = test system: Patients diagnosed with Alzheimer's Disease; assay: ADAS-cog/11 cognitive subscale, 5-month placebo-controlled trial; assay type: in vivo, human; conditions: for ADAS-cog/11 responders, change ≦ 0 points, % / ADAS-cog/11 responders, change ≦ −4 points, % / ADAS-cog/11 responders, change ≦ −7 points, % / ADAS-cog/11 responders, change ≦ −10 points, %: Month 5
Description: as §1
The ADAS consists of two parts—a cognitive subscale and a behavioral subscale. The behavioral subscale was not be used in this study. The cognitive subscale, the ADAS--cog-11, consisted of Word Recall and Word Recognition memory tests, Object and Finger Naming, Commands, Constructional Praxis, Ideational Praxis, Orientation, Remembering Test Instructions, Spoken language Ability, Comprehension of Spoken language and Word Finding Difficulty was the primary variable in this study.
The ADAS was performed at visits 1, 2, 3, 4 and 5 (screening, baseline, week 4, week 13 and month 5 or upon early discontinuation of trial medication intake). For word recall and word recognition two parallel wordlists, list A and list B were employed. List A was used at visits 1 and 3, List B at visits 2, 4, and 5 or upon early discontinuation of trial medication intake. For practical reasons the words for word recognition was presented only once. The total score of the 11 cognitive items on the original ADAS cognitive subscale (ADAS-cog/11, Range: 0-70) was recorded.
Between treatment groups comparisons (with particular focus on differences from placebo) were done at each scheduled time interval and for each endpoint imputation scheme. These comparisons will be based on the change from baseline scores for efficacy parameters with baseline (e.g., ADAS-cog/11) and the original scored for efficacy parameters without baseline e.g., CIBIC-plus).
For continuous data, a two-way analysis of variance (ANOVA) model with treatment and investigator as factors were used to compare the treatment groups for the change from baseline data. The interaction between treatment and investigator was examined. The impact of the baseline score on change from baseline was evaluated. […] If the parametric methods were deemed inappropriate (normality assumption violated), nonparametric methods such as two-way ANOVA on ranked data, Van Elteren test, controlling for investigator, was used. Following ANOVA, Fisher's LSD procedure was used for pairwise comparisons between each galanthamine group and the placebo group. A linear contrast on the main effect for treatment was used to test the dose response relationship.

humans = conditions: cited from earlier work

For `COc1ccc2c3c1O[C@H]1C[C@@H](O)C=C[C@@]31CCN(C)C2` [GAL, galantamine], the “CIBIC-plus at Month 5 improved/no change, % of patients” value ([1]; 8 mg/day, LOCF) was “(53%)”, the “CIBIC-plus at Month 5 improved/no change, % of patients” value ([1]; 8 mg/day, observed case) was “(51%)” and the “CIBIC-plus at Month 5 improved/no change, % of patients” value ([1]; 16 mg/day, LOCF) was “(66%)***^†”. The “CIBIC-plus at Month 5 improved/no change, % of patients” value ([1]; 16 mg/day, observed case) was “(68%)***^†”, the “CIBIC-plus at Month 5 improved/no change, % of patients” value ([1]; 16 mg/day, observed case, listed as galantamine) was 68% and the “CIBIC-plus at Month 5 improved/no change, % of patients” value ([1]; 24 mg/day, LOCF) was “(64%)***^‡”. The “CIBIC-plus at Month 5 improved/no change, % of patients” value ([1]; 24 mg/day, observed case) was “(64%)***^‡”, the “CIBIC-plus at Month 5 improved/no change, % of patients” value ([1]; 24 mg/day, observed case, listed as galantamine) was 64% and the “DC due to adverse event, %” value ([2]; 8 mg/day) was 6%. For the same compound, the “Total discontinued (DC), %” value ([2]; 8 mg/day) was 23%, the “DC due to adverse event, %” value ([2]; 16 mg/day) was 7% and the “Total discontinued (DC), %” value ([2]; 16 mg/day) was 22%. The “DC due to adverse event, %” value ([2]; 24 mg/day) was 10%, the “Total discontinued (DC), %” value ([2]; 24 mg/day) was 22% and the “Change from baseline in ADAS-cog/11 at Month 5, Mean” value (“Change from baseline” for short) ([3]; 8 mg/day, LOCF) was 0.4. The “ADAS-cog/11 responders, change ≦ 0 points, %” value ([3]; 8 mg/day) was “(46.5) %”, the “ADAS-cog/11 responders, change ≦ −4 points, %” value ([3]; 8 mg/day) was “(25.7) %” and the “ADAS-cog/11 responders, change ≦ −7 points, %” value ([3]; 8 mg/day) was “(13.9) %”. For the same compound, the “ADAS-cog/11 responders, change ≦ −10 points, %” value ([3]; 8 mg/day) was “(5.9) %”, the “Change from baseline” value ([3]; 8 mg/day, observed case) was 0.1 and the “Change from baseline” value ([3]; 16 mg/day, LOCF) was −1.4. The “ADAS-cog/11 responders, change ≦ 0 points, %” value ([3]; 16 mg/day) was “(65.4)***^‡ %”, the “ADAS-cog/11 responders, change ≦ −4 points, %” value ([3]; 16 mg/day) was “(35.6)***♦ %” and the “ADAS-cog/11 responders, change ≦ −7 points, %” value ([3]; 16 mg/day) was “(15.9)** %”. The “ADAS-cog/11 responders, change ≦ −10 points, %” value ([3]; 16 mg/day) was “(7.2) %”, the “ADAS-cog/11 responders, change ≦ −7 points, %” value ([3]; 16 mg/day, listed as galantamine) was 15.9% and the “Change from baseline” value ([3]; 16 mg/day, observed case) was −1.5. For the same compound, the “Change from baseline” value ([3]; 24 mg/day, LOCF) was −1.4, the “ADAS-cog/11 responders, change ≦ 0 points, %” value ([3]; 24 mg/day) was “(64.9)***^‡ %” and the “ADAS-cog/11 responders, change ≦ −4 points, %” value ([3]; 24 mg/day) was “(37.0)***^† %”. For the same compound, the “ADAS-cog/11 responders, change ≦ −7 points, %” value ([3]; 24 mg/day) was “(22.3)***♦♦ %”, the “ADAS-cog/11 responders, change ≦ −10 points, %” value ([3]; 24 mg/day) was “(10.4)** %” and the “ADAS-cog/11 responders, change ≦ −7 points, %” value ([3]; 24 mg/day, listed as galantamine) was 22.3%. The “Change from baseline” value ([3]; 24 mg/day, observed case) was −1.8, the “Passing the blood-brain barrier” value (humans; humans) was “capable of passing the blood-brain barrier in humans” and the “Side effects” value (humans; therapeutically effective dosages) was “no severe side effects”.
